We go through one compound from patent US20140113904A1, “TREATMENT OF CANCER WITH TOR KINASE INHIBITORS” (SIGNAL PHARMACEUTICALS, LLC, priority 2012, published 2014).

The assay relates to GSK3β(S9). The experiment in a line: Phospho-GSK3β(S9) in PC3 cell lysates, Luminex multiplex. Format: cell-based, human. The note with it: PC3, 1 hour exposure; read-out: p-GSK3β (S9) IC50. The source says: The direct substrate for TORC1 was 4E-BP 1(T46) and indirect downstream substrate was S6RP(S235/S236). The direct substrate for TORC2 was Akt(S473) and indirect downstream substrates measured were GSK3β(S9) and PRAS40(T246). Additionally, the phosphorylation status of Akt(T308), a phosphorylation site for PDK1 was monitored.
The multiplex Luminex assay format differs from conventional enzyme-linked immunosorbent assay (ELISA) in that the multiplex capture antibody is attached to a polystyrene bead whereas the ELISA capture antibody is attached to the microplate well. The use of the suspension bead-based technology enables the multiplexing capabilities of the Luminex assays. The xMAP® technology uses 5.6 micron polystyrene microspheres, which are internally dyed with red and infrared fluorophores of differing intensities. Each bead is given a unique number, or bead region, allowing differentiation of one bead from another. Beads covalently bound to different specific antibodies can be mixed in the same assay, utilizing a 96-well microplate format. At the completion of the sandwich immunoassay, beads can be read, using the Luminex 100™ or Luminex 200 detection system, in single-file by dual lasers for classification and quantification of each analyte. […]

pIC50: −log10 of the molar value.

For orientation: pIC50 means −log10 of the IC50, conventionally taken in molar units. `CO[C@H]1CC[C@H](N2C(=O)CNc3ncc(-c4ccc(C(C)(C)O)nc4)nc32)CC1` [Compound 1, 7-(6-(2-hydroxypropan-2-yl)pyridin-3-yl)-1-((1r,4r)-4-methoxycyclohexyl)-3,4-dihydropyrazino-[2,3-b]pyrazin-2(1H)-one]: the pIC50 was 6.64.
